Tests used:
[1] = target: T1, E. coli DH5α tryptophan synthase (TrpBA) (Escherichia coli, UniProt P0A879); type: biochemical; design: key: +: a clear ninhydrin-positive spot at the Rf of standard tryptophan derivatives after 16-65 h; (+): a weak spot in the product region; −: no product observed; NR: experiment not run; settings: indole derivative + L-serine + PLP, 37° C., 16-65 h, ninhydrin
T1 construct: made in house; host or cells: E. coli LMG194 (pBAD) or BL-21 (pET)
Experimental: (§1) A mixture containing 2 μmole of the indole derivative, 0.05 μmole of PLP and 50 μmol of L-serine in 40 mM KPi buffer in 8% v/v ethanol water, pH 7.5, was warmed to 37° C., then enzyme solution was added to give a final volume of 1 mL. Aliquots (100 μL) were quenched at intervals of 2, 6, and 24 hours or more in microcentrifuge capsules containing 25 μL of 6 M HCl. The quenched samples were evaporated in a Savant Speed-vac. The residues were resuspended in methanol/water (1:1, 50 μL) and analyzed by TLC on Silica gel GF254 plates alongside tryptophan and tryptamine standards, eluting with CH2Cl2/EtOH/H2O/HOAc 77:20:2:1. Products were visualized first by using short-wave UV light, then with ninhydrin spray reagent (1/1/98 w/v/v ninhydrin/HOAc/EtOH) followed by heating.
(§2) Substituted indoles were incubated with L-serine, PLP and enzyme (TrpBA or TnA) prior to TLC analysis as generally described in Example 6. Serine, which can be used instead of pyruvate and ammonia for tryptophan synthesis with TnA, was employed as the 3-carbon acid because pyruvate tended to obscure the tryptophan product spots when plates were visualized with ninhydrin. TnA-catalyzed formation of tryptophan was also faster when serine was the 3-carbon donor. Reaction rates for several substrates were also estimated by HPLC.
(§3) In Table 4, “+” indicates a clear ninhydrin-positive spot at the Rf of standard tryptophan derivatives after 16-65 h; “(+)” indicates a weak spot in the product region; “−” means no product observed, “NR” means experiment not run. ESMS=electrospray mass spectrometry. Unless otherwise indicated, the mass value given represents the singly-protonated molecular ion (M+1).

tryptophanase (TnA) = target: T2, tryptophanase (TnA) (Escherichia coli, UniProt P0A853); type: biochemical, E. coli; design: key: +: a clear ninhydrin-positive spot at the Rf of standard tryptophan derivatives after 16-65 h; (+): a weak spot in the product region; −: no product observed; NR: experiment not run; settings: indole derivative + L-serine + PLP, 37° C., 16-65 h, ninhydrin
T2 construct: made in house; host or cells: E. coli LMG194 (pBAD) or BL-21 (pET)
T2 sequence (P0A853 whole entry): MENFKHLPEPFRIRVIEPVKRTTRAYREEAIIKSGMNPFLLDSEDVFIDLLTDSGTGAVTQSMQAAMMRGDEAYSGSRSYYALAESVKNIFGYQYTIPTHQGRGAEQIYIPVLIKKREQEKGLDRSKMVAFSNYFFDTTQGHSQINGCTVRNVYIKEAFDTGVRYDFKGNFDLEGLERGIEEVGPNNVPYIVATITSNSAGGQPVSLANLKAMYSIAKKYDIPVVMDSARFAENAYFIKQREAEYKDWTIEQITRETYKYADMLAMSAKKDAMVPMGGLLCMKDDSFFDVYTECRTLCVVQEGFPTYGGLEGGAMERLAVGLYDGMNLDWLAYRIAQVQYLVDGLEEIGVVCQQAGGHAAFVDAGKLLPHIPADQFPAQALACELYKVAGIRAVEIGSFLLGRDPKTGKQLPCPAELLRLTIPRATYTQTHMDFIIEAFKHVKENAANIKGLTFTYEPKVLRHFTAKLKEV
Experimental: as §1, §2, §3

T1 sequence (P0A879 whole entry): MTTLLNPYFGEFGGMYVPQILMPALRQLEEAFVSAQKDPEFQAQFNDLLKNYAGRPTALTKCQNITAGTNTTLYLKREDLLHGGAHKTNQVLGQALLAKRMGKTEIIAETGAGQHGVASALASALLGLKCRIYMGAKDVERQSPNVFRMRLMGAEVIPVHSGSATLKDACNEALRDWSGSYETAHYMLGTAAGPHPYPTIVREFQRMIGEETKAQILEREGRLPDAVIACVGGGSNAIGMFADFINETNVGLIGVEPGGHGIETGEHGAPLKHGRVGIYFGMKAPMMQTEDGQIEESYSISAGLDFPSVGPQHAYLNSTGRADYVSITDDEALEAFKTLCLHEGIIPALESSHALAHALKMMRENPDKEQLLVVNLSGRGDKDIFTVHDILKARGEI
T1 sequence (P0A877 whole entry, further chain): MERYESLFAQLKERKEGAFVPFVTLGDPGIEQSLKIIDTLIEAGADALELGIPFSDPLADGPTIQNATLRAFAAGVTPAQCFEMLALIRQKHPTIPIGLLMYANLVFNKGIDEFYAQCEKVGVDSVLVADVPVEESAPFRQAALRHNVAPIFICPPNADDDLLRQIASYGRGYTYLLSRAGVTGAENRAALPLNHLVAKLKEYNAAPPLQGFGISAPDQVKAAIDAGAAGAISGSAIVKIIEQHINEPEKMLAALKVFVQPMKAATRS

Compound	TrpBA (tryptophan product spot, TLC analysis) [1]	TnA (tryptophan product spot, TLC analysis) (tryptophanase (TnA))
Clc1ccc2cc[nH]c2c1 [6-chloroindole]	−	+
O=C(O)c1ccc2[nH]ccc2c1 [Indole-5-carboxylic acid]	−	−
Nc1cccc2[nH]ccc12 [4-amino-]	+	+
COc1ccc2cc[nH]c2c1 [6-methoxyindole]	+	(+)
O=[N+]([O-])c1ccc2[nH]ccc2c1 [5-nitro-]	−	−
Oc1ccc2[nH]ccc2c1 [5-hydroxy-]	+	+
O=[N+]([O-])c1cccc2[nH]ccc12 [4-nitro-]	−	−
Oc1cccc2[nH]ccc12 [4-hydroxy]	+	+
O=C(O)c1cc2cc(Br)ccc2[nH]1 [5-bromoindole-2-carboxylic acid]	−	
Fc1ccc2cc[nH]c2c1 [6-fluoroindole]	+	(+)
COc1ccc2[nH]c(C)cc2c1 [5-methoxy-2-methyl-]	+	−
Cc1ccc2[nH]c(C)cc2c1 [2,5-dimethyl-]	+	−
Clc1ccc2[nH]ccc2c1 [5-chloro-]	+	+
N#Cc1ccc2[nH]ccc2c1 [5-cyano-]	−	−
Nc1ccc2[nH]ccc2c1 [5-amino-]	−	−
indoxyl acetate [4-acetoxy-[indoxyl acetate]]	+	+
Clc1cccc2cc[nH]c12 [7-chloro]	+	−

— patent US20030096379A1, “Method for producing tryptamine derivatives” (priority 2001, published 2003)
